Data taken from US8501752B2, “Methods for treating cancer and other pathological proliferating disorders by inhibiting mitosis using pyrrolo[2,3-d]pyrimidines” (Duquesne University of the Holy Ghost, priority 2005, dated 2013).
Where two headings read alike, the source gives them in different places.

Legend:
NCI-H522 = assay: NCI IVCLSP growth inhibition (SRB), NCI-H522; type: cell-based, human; conditions: 48 h drug incubation
Protocol: (§1) FIG. 1 presents nine compounds that were tested using the National Cancer Institute (NCI) 60 human tumor cell lines. The cells lines, which represent leukemia, melanoma, and cancers of the lung, colon, brain, ovary, breast, prostate, and kidney, are listed in Table 1.
(§2) Compounds 1-9 were tested according to the NCI Developmental Therapeutics Program (DTP) In Vitro Cell Line Screening Project (IVCLSP). […] Methodology for testing under the IVCLSP is as follows: The human tumor cell lines of the cancer screening panel are grown in RPMI 1640 medium containing 5% fetal bovine serum and 2 mM L-glutamine. […]
(§3) Following drug addition, the plates are incubated for an additional 48 h at 37° C., 5% CO2, 95% air, and 100% relative humidity. […] Bound stain is subsequently solubilized with 10 mM trizma base, and the absorbance is read on an automated plate reader at a wavelength of 515 nm. […] Using the seven absorbance measurements [time zero, (Tz), control growth, (C), and test growth in the presence of drug at the five concentration levels (Ti)], the percentage growth is calculated at each of the drug concentrations levels. Percentage growth inhibition is calculated as: [(Ti−Tz)/(C−Tz)]×100 for concentrations for which Ti>/=Tz [(Ti−Tz)/Tz]×100 for concentrations for which Ti<Tz.
(§4) Three dose response parameters are calculated for each experimental agent. […]

SK-MEL-5 = assay: NCI IVCLSP growth inhibition (SRB), SK-MEL-5; type: cell-based, human; conditions: 48 h drug incubation
Protocol: as §1, §2, §3, §4

DU-145 = assay: NCI IVCLSP growth inhibition (SRB), DU-145; type: cell-based, human; conditions: 48 h drug incubation
Protocol: as §1, §2, §3, §4

MCF-7/VP cells = assay: Cytotoxicity, MCF-7/VP cells that overexpress MRP1; conditions: for IC50: mean ± SEM for 3 experiments
Excerpt: These cell lines are resistant to anticancer drugs due to overexpression of the transport proteins P-glycoprotein or MRP1.

M14 = assay: NCI IVCLSP growth inhibition (SRB), M14; type: cell-based, human; conditions: 48 h drug incubation
Protocol: as §1, §2, §3, §4

SF-268 = assay: NCI IVCLSP growth inhibition (SRB), SF-268; type: cell-based, human; conditions: 48 h drug incubation
Protocol: as §1, §2, §3, §4

SNB-75 = assay: NCI IVCLSP growth inhibition (SRB), SNB-75; type: cell-based, human; conditions: 48 h drug incubation
Protocol: as §1, §2, §3, §4

HCT-15 = assay: NCI IVCLSP growth inhibition (SRB), HCT-15; type: cell-based, human; conditions: 48 h drug incubation
Protocol: as §1, §2, §3, §4

EKVX = assay: NCI IVCLSP growth inhibition (SRB), EKVX; type: cell-based, human; conditions: 48 h drug incubation
Protocol: as §1, §2, §3, §4

NCI-H226 = assay: NCI IVCLSP growth inhibition (SRB), NCI-H226; type: cell-based, human; conditions: 48 h drug incubation
Protocol: as §1, §2, §3, §4

SF-295 = assay: NCI IVCLSP growth inhibition (SRB), SF-295; type: cell-based, human; conditions: 48 h drug incubation
Protocol: as §1, §2, §3, §4

OVCAR-8 = assay: NCI IVCLSP growth inhibition (SRB), OVCAR-8; type: cell-based, human; conditions: 48 h drug incubation
Protocol: as §1, §2, §3, §4

OVCAR-5 = assay: NCI IVCLSP growth inhibition (SRB), OVCAR-5; type: cell-based, human; conditions: 48 h drug incubation
Protocol: as §1, §2, §3, §4

CAKI-1 = assay: NCI IVCLSP growth inhibition (SRB), CAKI-1; type: cell-based, human; conditions: 48 h drug incubation
Protocol: as §1, §2, §3, §4

ACHN = assay: NCI IVCLSP growth inhibition (SRB), ACHN; type: cell-based, human; conditions: 48 h drug incubation
Protocol: as §1, §2, §3, §4

SK-OV-3 = assay: NCI IVCLSP growth inhibition (SRB), SK-OV-3; type: cell-based, human; conditions: 48 h drug incubation
Protocol: as §1, §2, §3, §4

TKIO = assay: NCI IVCLSP growth inhibition (SRB), TKIO; type: cell-based, human; conditions: 48 h drug incubation
Protocol: as §1, §2, §3, §4

With COc1cc(CCc2cn(Cc3ccccc3)c3nc(N)nc(C)c23)cc(OC)c1OC [Compound 1] the GI50 (NCI-H522) was 47.7 nM, the GI50 (SK-MEL-5) was 61.1 nM and the GI50 (DU-145) was 224 nM. The “Resistance (MCF-7/VP relative to MCF-7)” value (MCF-7/VP cells; MRP1) was 0.6, the IC50 (MCF-7/VP cells; read-out: Cytotoxicity IC50, MCF-7/VP) was 250 ± 160 nM and the IC50 (MCF-7/VP cells; read-out: drug sensitivity (IC50), MCF-7/VP, Table 4, MRP1 overexpressing) was 180 ± 10 nM. It also gave a GI50 (M14) of 77 nM, a GI50 (SF-268) of 669 nM and a GI50 (SNB-75) of 358 nM. It also gave a GI50 (HCT-15) of 127 nM, a GI50 (EKVX) of 424 nM and a GI50 (NCI-H226) of 195 nM. It also gave a GI50 (SF-295) of 41.8 nM, a GI50 (OVCAR-8) of 364 nM and a GI50 (OVCAR-5) of over 1000 nM. The GI50 (CAKI-1) was 366 nM, the GI50 (ACHN) was 728 nM and the GI50 (SK-OV-3) was 506 nM. For the same molecule, the GI50 (TKIO) was 961 nM.
